Test results as given in patent EP0421733B1, “Amphotericin B lipid complex” (THE LIPOSOME COMPANY, INC., priority 1989, dated 1991).
Where two headings read alike, the source gives them in different places.

Test system: C. albicans SC 5314
Experiment: Single-dose intravenous treatment of systemic candidiasis in mice
Assay type: in vivo
Settings: Candida albicans, SC5314, iv
Experimental: Female Swiss Webster mice were infected intraveneously with 5 x 10⁶ blastospores of C. albicans SC 5314 and treated one time with either ABLC or amphotericin B, five hours later. The amphotericin B was diluted in 5% dextrose for intravenous injection into the experimental mice. The ABLC formulation was also administered intravenously.

## C[C@@H]1[C@H](O)[C@@H](C)/C=C/C=C/C=C/C=C/C=C/C=C/C=C/[C@H](O[C@@H]2O[C@H](C)[C@@H](O)[C@H](N)[C@@H]2O)C[C@@H]2O[C@](O)(C[C@@H](O)C[C@@H](O)[C@H](O)CC[C@@H](O)C[C@@H](O)CC(=O)O[C@H]1C)C[C@H](O)[C@H]2C(=O)O [Amphotericin B]
5 h, read-out: ED₅₀(mg AMB/kg) Clearance
  ED50: 0.7 mg/kg
5 h, read-out: ED₅₀(mg AMB/kg) Survival
  ED50: 0.46 mg/kg
read-out: survival ED₅₀
  ED50: 0.46 mg/kg
Single i.v. dose, infected mice, read-out: ED₅₀ based on kidney clearance
  ED50: 0.7 mg/kg
